Source: PMC8309005, “Novel Non-Congeneric Derivatives of the Choline Kinase Alpha Inhibitor ICL-CCIC-0019” (Pharmaceutics, 2021)

What was measured:
[1] = tested on: four cancer cell lines (HCT-116, A549, HepG2, Caco-2); assay: Anti-proliferative SRB assay, mean of four cancer cell lines; assay type: cell-based; settings: Homo sapiens
Experimental: (§1) Half-maximal growth inhibitory concentrations (GI50) were determined using sulforhodamine B (SRB) assay as described elsewhere. In brief, cells were seeded in 96-wells at respective cell densities determined by their cell growth curves. After 24 h, the cells were treated in six replicates with medium or different concentrations of CHKA inhibitors in medium and incubated for another 72 h. On completion of incubation, the cells were fixed with 10% trichloroacetic acid (TCA) and stained with 0.4% SRB in 1% acetic acid. The stained protein was solubilized with 10 mM Tris base and optical density values were measured at 540 nm using a Multiskan® EX Micro plate photometer (Thermo Scientific, Loughborough, UK). Growth inhibition curves were plotted as percentage of the control groups and GI50 data were determined by least squares fitting method using GraphPad Prism 7.0. All the chemicals used in this experiment were obtained from Sigma-Aldrich (Gillingham, UK).

[2] = tested on: C4-2B cell line; assay: Anti-proliferative SRB assay, C4-2B; assay type: cell-based; settings: Homo sapiens, PSMA +, Table S3, ± SD
Experimental: as §1

[3] = molecular target: SPHK1 (Homo sapiens, UniProt Q9NYA1); assay: Lipid kinase screening (ADP-Glo), SPHK1; assay type: biochemical
Experimental: (§2) The lipid kinase screening for ICL-CCIC-0019, CK14, CK145 (5), CK146 (4) and CK147 (8) (testing concentration for all compounds: 10 μM) was performed by MRC PPU International Centre for Kinase Profiling (Dundee, UK). The lipid kinase screening panel includes 15 human recombinant lipid kinases and the tests used Promega ADP Glo^TM High Throughput Assay kit (Promega, Southampton, UK). For each assay, reference compounds were used as quality control. Finally, mean percentage activity inhibited by compounds and standard deviation for all the repeats were calculated.

[4] = molecular target: phosphatidylinositol 4-kinase beta (PIK4CB) (Homo sapiens, UniProt Q9UBF8); assay: Lipid kinase screening (ADP-Glo), PIK4CB; assay type: biochemical
Experimental: as §2

[5] = tested on: PI3Ka E524K + p85; assay: Lipid kinase screening (ADP-Glo), PI3Ka E524K + p85; assay type: biochemical, human; settings: 10 μM
Experimental: as §2

[6] = tested on: R1-D567 cell line; assay: Anti-proliferative SRB assay, R1-D567; assay type: cell-based; settings: Homo sapiens; R1-D567, PSMA −; Table S3, ± SD
Experimental: as §1

[7] = tested on: A549 cells; assay: Anti-proliferative SRB assay, A549; assay type: cell-based; settings: Homo sapiens, 72 h, Table S2, ± SD
Experimental: as §1

[8] = molecular target: T1, PIP5K2A (Homo sapiens, UniProt P48426); assay: Lipid kinase screening (ADP-Glo), PIP5K2A; assay type: biochemical
T1 sequence (P48426 1-406): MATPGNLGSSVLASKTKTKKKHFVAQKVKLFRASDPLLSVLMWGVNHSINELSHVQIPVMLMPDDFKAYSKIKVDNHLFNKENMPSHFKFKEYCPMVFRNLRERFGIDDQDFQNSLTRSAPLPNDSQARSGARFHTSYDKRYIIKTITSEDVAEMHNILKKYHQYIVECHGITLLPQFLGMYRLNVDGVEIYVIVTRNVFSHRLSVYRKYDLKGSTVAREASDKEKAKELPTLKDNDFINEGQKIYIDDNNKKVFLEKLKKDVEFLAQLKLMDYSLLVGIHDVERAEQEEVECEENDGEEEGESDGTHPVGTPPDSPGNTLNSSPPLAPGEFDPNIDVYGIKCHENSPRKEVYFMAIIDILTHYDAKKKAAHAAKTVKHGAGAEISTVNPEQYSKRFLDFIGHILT
Experimental: as §2

[9] = molecular target: PI4K2a (Homo sapiens, UniProt Q9BTU6); assay: Lipid kinase screening (ADP-Glo), PI4K2a; assay type: biochemical
Experimental: as §2

[10] = tested on: LNCap cell line; assay: Anti-proliferative SRB assay, LNCap; assay type: cell-based; settings: Homo sapiens, PSMA +, Table S3, ± SD
Experimental: as §1

[11] = tested on: HepG2 cells; assay: Anti-proliferative SRB assay, HepG2; assay type: cell-based; settings: Homo sapiens, 72 h, Table S2, ± SD
Experimental: as §1

[12] = molecular target: DGK b (Homo sapiens, UniProt Q9Y6T7); assay: Lipid kinase screening (ADP-Glo), DGK b; assay type: biochemical
Experimental: as §2

[13] = molecular target: PI3K b (Homo sapiens, UniProt P42338); assay: Lipid kinase screening (ADP-Glo), PI3K b; assay type: biochemical
Experimental: as §2

[14] = tested on: PC3 cell line; assay: Anti-proliferative SRB assay, PC3; assay type: cell-based; settings: Homo sapiens, PC-3; PC3, PSMA −; Table S3, ± SD
Experimental: as §1

[15] = tested on: 22Rv1 cell line; assay: Anti-proliferative SRB assay, 22Rv1; assay type: cell-based; settings: Homo sapiens; 22Rv1, PSMA +; Table S3, ± SD
Experimental: as §1

[16] = tested on: Caco-2 cells; assay: Anti-proliferative SRB assay, Caco-2; assay type: cell-based; settings: Homo sapiens; Caco-2, SRB, 72 h; Table S2, ± SD
Experimental: as §1

[17] = Caco-2 permeability and efflux study; assay type: in vitro ADME, human; settings: human; for efflux ratio: Caco-2, read-out: Efflux ratio (Papp B-A/Papp A-B); for Papp A→B: Caco-2, apical to basolateral, read-out: Papp A-B; for Papp B→A: Caco-2, basolateral to apical, read-out: Papp B-A
Experimental: The ADME study for ICL-CCIC-0019, CK14, CK145 (5), CK146 (4) and CK147 (8) was performed by Charles River Drug Discovery Services (Essex, UK).
The predicted in vitro pharmacokinetic characteristics of compounds were evaluated by four ADME assays, namely kinetic solubility assay, metabolic stability assay using human liver microsome S9, permeability and efflux study using the Caco-2 cell line, and matrix stability assay using fasted state simulated gastric fluid (FaSSGF). All tested CHKA inhibitors were highly soluble (>150 μM) in 0.1 M PBS (2% DMSO) (Table 1). […] The in vivo clearance was calculated to predict the actual clearance in humans by scaling the clearance values, which takes into account liver weight, microsomes per liver and liver blood flow. […] In Caco-2 cell permeability assay, drug permeability was investigated and presented as apparent permeability coefficients (Papp) in A to B (A-B, apical to basolateral direction) and B to A (B-A, basolateral to apical direction).

Sequence of SPHK1 (Q9NYA1 whole entry): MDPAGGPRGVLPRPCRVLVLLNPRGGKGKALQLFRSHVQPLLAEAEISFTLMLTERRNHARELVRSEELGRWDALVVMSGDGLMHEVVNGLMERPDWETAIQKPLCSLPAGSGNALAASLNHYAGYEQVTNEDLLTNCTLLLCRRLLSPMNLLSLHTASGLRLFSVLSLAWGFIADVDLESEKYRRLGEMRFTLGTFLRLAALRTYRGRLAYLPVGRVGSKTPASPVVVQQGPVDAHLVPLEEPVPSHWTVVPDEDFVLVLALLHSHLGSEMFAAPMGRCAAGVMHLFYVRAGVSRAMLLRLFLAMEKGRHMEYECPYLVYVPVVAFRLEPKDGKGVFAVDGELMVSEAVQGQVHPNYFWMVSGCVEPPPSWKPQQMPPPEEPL
Sequence of phosphatidylinositol 4-kinase beta (PIK4CB) (Q9UBF8 whole entry): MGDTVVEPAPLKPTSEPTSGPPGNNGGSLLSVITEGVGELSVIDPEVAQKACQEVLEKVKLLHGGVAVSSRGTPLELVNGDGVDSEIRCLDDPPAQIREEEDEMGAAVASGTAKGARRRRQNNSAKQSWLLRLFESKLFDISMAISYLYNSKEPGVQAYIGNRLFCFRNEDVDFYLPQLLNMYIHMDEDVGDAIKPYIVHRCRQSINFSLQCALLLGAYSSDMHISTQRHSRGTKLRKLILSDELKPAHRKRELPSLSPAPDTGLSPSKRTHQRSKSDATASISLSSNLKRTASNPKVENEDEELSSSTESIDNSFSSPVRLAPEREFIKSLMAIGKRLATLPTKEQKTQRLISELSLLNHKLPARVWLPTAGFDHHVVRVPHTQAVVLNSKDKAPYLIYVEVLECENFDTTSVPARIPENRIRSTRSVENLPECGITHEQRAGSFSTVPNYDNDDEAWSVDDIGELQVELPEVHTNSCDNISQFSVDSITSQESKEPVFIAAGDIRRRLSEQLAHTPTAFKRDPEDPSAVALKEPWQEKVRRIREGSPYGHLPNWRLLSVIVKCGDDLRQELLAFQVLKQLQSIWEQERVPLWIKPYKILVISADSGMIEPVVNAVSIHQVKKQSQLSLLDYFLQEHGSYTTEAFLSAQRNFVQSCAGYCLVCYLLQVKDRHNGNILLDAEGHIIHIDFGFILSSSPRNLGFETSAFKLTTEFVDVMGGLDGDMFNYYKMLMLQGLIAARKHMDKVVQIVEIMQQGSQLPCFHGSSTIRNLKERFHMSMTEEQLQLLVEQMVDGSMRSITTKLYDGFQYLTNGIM
Sequence of PI3K b (P42338 whole entry): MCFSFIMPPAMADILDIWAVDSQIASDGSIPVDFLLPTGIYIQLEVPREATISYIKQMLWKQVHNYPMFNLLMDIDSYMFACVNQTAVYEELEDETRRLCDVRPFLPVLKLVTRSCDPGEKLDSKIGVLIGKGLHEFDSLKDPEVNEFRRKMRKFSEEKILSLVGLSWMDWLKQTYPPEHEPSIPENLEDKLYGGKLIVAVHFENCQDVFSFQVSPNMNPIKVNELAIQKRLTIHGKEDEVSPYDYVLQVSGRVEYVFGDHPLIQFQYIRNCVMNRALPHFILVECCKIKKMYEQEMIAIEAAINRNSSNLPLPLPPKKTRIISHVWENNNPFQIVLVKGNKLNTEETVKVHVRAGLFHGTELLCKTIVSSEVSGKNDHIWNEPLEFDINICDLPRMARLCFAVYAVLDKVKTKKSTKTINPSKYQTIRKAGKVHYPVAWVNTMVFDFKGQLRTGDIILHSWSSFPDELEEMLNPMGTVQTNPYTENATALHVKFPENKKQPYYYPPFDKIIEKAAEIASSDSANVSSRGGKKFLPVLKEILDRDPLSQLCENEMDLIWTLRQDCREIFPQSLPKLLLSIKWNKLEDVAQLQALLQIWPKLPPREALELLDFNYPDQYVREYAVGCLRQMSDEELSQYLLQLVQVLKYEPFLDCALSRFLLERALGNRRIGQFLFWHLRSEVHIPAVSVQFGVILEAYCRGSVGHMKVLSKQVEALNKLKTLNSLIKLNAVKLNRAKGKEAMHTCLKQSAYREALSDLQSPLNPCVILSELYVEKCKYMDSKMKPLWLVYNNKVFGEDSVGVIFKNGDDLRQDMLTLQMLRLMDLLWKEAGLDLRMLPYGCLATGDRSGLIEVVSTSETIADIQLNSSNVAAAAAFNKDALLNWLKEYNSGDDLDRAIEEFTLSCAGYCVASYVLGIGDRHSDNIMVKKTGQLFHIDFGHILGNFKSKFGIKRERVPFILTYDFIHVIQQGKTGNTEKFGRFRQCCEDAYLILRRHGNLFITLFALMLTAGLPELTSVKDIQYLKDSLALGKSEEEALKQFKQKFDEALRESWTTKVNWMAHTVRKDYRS
Sequence of PI3K b (P27986 whole entry partner): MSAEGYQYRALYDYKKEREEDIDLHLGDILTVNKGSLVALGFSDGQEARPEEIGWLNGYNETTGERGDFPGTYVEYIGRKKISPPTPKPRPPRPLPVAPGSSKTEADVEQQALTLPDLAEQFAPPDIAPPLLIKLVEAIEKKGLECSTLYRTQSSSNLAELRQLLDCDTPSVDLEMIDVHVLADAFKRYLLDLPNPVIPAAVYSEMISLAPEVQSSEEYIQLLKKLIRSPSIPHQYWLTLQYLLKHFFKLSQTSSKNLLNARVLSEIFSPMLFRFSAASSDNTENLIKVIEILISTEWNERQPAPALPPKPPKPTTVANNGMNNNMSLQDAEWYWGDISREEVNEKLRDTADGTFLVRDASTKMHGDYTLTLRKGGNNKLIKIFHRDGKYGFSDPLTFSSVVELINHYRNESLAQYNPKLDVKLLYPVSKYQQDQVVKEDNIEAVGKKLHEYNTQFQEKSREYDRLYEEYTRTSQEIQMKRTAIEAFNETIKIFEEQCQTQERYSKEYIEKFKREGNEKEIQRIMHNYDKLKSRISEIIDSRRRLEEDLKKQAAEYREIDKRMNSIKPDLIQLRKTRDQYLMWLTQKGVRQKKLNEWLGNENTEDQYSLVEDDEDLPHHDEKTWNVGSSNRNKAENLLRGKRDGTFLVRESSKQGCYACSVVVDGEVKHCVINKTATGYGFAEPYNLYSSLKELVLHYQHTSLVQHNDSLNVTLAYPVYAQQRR
Sequence of PI4K2a (Q9BTU6 whole entry): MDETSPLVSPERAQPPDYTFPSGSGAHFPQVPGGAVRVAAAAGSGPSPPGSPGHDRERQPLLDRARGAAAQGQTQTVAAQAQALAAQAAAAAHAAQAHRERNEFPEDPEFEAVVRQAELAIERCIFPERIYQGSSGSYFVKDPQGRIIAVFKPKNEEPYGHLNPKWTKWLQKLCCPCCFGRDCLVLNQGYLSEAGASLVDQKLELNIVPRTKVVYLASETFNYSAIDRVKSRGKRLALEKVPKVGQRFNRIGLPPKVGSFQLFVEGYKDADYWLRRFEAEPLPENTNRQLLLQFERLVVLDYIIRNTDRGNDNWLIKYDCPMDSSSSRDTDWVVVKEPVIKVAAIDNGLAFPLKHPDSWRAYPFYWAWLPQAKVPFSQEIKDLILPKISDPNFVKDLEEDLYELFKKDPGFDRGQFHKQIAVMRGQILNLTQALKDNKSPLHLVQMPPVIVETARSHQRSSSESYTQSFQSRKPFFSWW

Row | GI50 [1] [µM] | inhibition at 10 µM [3] [%] | inhibition at 10 µM [4] [%] | % Inhibition PIK4CB ([4]; 10 μM) [%] | % Inhibition PI3Ka E524K + p85 [5] [%] | GI50 [7] [µM] | inhibition at 10 µM [8] [%] | inhibition at 10 µM [9] [%] | GI50 [10] [µM] | GI50 [11] [µM] | inhibition at 10 µM [12] [%] | inhibition at 10 µM [13] [%] | GI50 [14] [µM] | GI50 [15] [µM] | GI50 [16] [µM] | efflux ratio [17] | Papp A→B [17] [nm/s] | Papp B→A [17] [nm/s] | Compound | GI50 [2] [µM] | GI50 [6] [µM]
1 | 5 ± 0.3 | 0.6 | 51 | 50.6 | −0.1 | 2.47 ± 0.06 | 0.4 | -11.4 | 39 ± 8.56 | 2.25 ± 0.06 | 8 | -15.8 | 84.9 ± 7.03 | 45.6 ± 6.4 | 10.8 ± 1 | > 2.8 | < 1 | 3 | CC(=O)NCCCCC(NC(=O)OC(C)(C)C)C(=O)N1CCN(c2cc[n+](CCCCCCCCCCCCCC[n+]3ccc(N(C)C)cc3)cc2)CC1 (stereo not shown) [CK145] | 63 ± 12.1 | 40.4 ± 4.56
2 | 2.5 ± 0.3 | 2.1 | 47 | – | −6.5 | 2.07 ± 0.2 | 1.4 | -13.4 | 1.92 ± 0.99 | 0.21 ± 0.01 | 1.1 | -45.9 | 4.73 ± 0.81 | 4.98 ± 1.5 | 3.09 ± 0.05 | > 2.6 | < 1 | 3 | CN(C)c1cc[n+](CCCCCCCCCCCCCC[n+]2ccc(N3CCNCC3)cc2)cc1 [CK146] | 4.22 ± 0.43 | 0.87 ± 0.03
3 | 0.5 ± 0.02 | -3.7 | -24.1 | – | 1.6 | 0.05 ± 0.005 | -16.1 | -13.9 | 0.3 ± 0.06 | 0.18 ± 0.01 | 8.6 | -39.6 | 0.79 ± 0.03 | 0.91 ± 0.13 | 1.19 ± 0.04 | > 8.6 | < 1 | 9 | CN(C)c1cc[n+](CCCCCCCCCCCC[n+]2ccc(N(C)C)cc2)cc1 [ICL-CCIC-0019] | 1.2 ± 0.31 | 0.32
